The results in this text go back to the RepoRT retention time repository.

The data set in a line: A: acetonitrile + 0.1% formic acid + 10 mM ammonium formate; B: 5% water + 95% acetonitrile + 0.1% formic acid + 10 mM ammonium formate; gradient (min/%B) 0/10 2/10 22/100 27/100 27.1/10. To be noted: stereoisomer not certain.

As to `NCCc1c[nH]c2ccccc12` [Tryptamine], the LC retention time came to 2.25 min. On to `CC12CCC(=O)C=C1CCC1C2CCC2(C)C1CCC2(O)C(=O)CO` (configuration not stated) [Cortexolone], for which the LC retention time is 0.459 min.

Consider `Cc1ncc(C[n+]2csc(CCOP(=O)([O-])O)c2C)c(N)n1` [Thiamine monophosphate], for which the LC retention time was found to be 8.44 min. With `O=C1CCNC(=O)N1` [Dihydrouracil] the figure was 0.746 min; with `O=C(O)CN(CCO)CCO` [Bicine], 6.2 min; with `CC(C)NCC(O)COc1cccc2ccccc12` (racemic) [(+/-)-Propranolol], 1.21 min. To `NC(=O)NCCC[C@H](N)C(=O)O` [L-Citrulline] belongs 6.76 min.
